Experimental data taken from EPA's ToxRefDB 2.

Key:
[1] = system: rat; conditions: Sub-acute dermal toxicity, sprague dawley, Topical, dose end: 2 week, group: systemic, systemic / in life observation / body weight / body weight gain + systemic / in life observation / food consumption / food consumption
[2] = system: rat; conditions: Subchronic dermal toxicity, sprague dawley, Topical, dose end: 91 day, group: systemic, systemic / in life observation / clinical signs / skin ulceration
[3] = system: mouse; conditions: Subchronic oral toxicity in rodents, cd1, Feed, dose end: 3 month, group: systemic
[4] = system: rat; conditions: Subchronic oral toxicity in rodents, Feed, dose end: 13 week, group: systemic
[5] = system: rat; conditions: Prenatal developmental toxicity study, other, Oral, Gavage/Intubation, dose end: 15 GD
[6] = system: dog; conditions: Chronic toxicity, beagle, Oral, Feed, dose end: 52 week, group: systemic
[7] = system: dog; conditions: Subchronic oral toxicity in nonrodent, beagle, Feed, dose end: 3 month, group: systemic
[8] = system: mouse; conditions: Carcinogenicity; cd1; Oral; Feed; dose end: 78 week; group: systemic; systemic / organ weight / liver / nos + systemic / pathology microscopic / liver / hypertrophy + systemic / pathology microscopic / liver / …
[9] = system: rat; conditions: Multigenerational reproductive toxicity study, sprague dawley, Oral, Feed, dose end: 2 generation
[10] = system: rat; conditions: Combined chronic toxicity/carcinogenicity, sprague dawley, Oral, Feed, dose end: 2 year, group: systemic
[11] = systemic / pathology microscopic / liver / hypertrophy
[12] = systemic / pathology microscopic / liver / hypertrophy + systemic / clinical chemistry / alanine aminotransferase (alt/sgpt) / alanine …
[13] = systemic / pathology microscopic / liver / vacuolization
[14] = systemic / pathology microscopic / liver / vacuolization + systemic / clinical chemistry / cholesterol / cholesterol + systemic / clinical …
[15] = group: developmental, developmental / developmental malformation / bone / short supernumerary + systemic / in life observation / body weight / fetal weight
[16] = group: maternal, reproductive / reproductive performance / implantations / implantations + reproductive / reproductive performance / resorptions / …
[17] = systemic / in life observation / body weight / body weight gain
[18] = systemic / in life observation / body weight / body weight gain + systemic / clinical chemistry / alkaline phosphatase (alp/alk) / alkaline …
[19] = systemic / pathology microscopic / liver / hypertrophy + systemic / clinical chemistry / alkaline phosphatase (alp/alk) / alkaline …
[20] = group: offspring, developmental / offspring survival late / viability index / viability index + systemic / in life observation / body weight / offspring (pup…
[21] = group: parental, systemic / in life observation / body weight / body weight + systemic / in life observation / food consumption / food consumption + systemic…
[22] = group: reproductive, reproductive / reproductive performance / dystocia / dystocia + reproductive / reproductive performance / gestational length / gestational …
[23] = systemic / hematology / hematocrit (hct) / hematocrit (hct) + systemic / hematology / hemoglobin (hgb) / hemoglobin (hgb) + systemic / …

CC(O)CSS(C)(=O)=O (configuration not stated) [2-Hydroxypropyl methanethiosulfonate]
LEL [1]: 100 mg/kg/day
LOAEL [1]: 100 mg/kg/day
NEL [1]: < 100 mg/kg/day
NOAEL [1]: < 100 mg/kg/day
LEL [2]: 10 mg/kg/day
LOAEL [2]: 10 mg/kg/day
NEL [2]: < 10 mg/kg/day
NOAEL [2]: < 10 mg/kg/day

N#CC(CCc1ccc(Cl)cc1)(Cn1cncn1)c1ccccc1 (configuration not stated) [Fenbuconazole]
LEL [3, 11]: 11.1 mg/kg/day
LOAEL [3, 11]: 11.1 mg/kg/day
NEL [3, 12]: 3.8 mg/kg/day
NOAEL [3, 12]: 3.8 mg/kg/day
LEL [4, 13]: 5.1 mg/kg/day
LOAEL [4, 13]: 5.1 mg/kg/day
NEL [4, 14]: 1.3 mg/kg/day
NOAEL [4, 14]: 1.3 mg/kg/day
LEL [5, 15]: 150 mg/kg/day
LOAEL [5, 15]: > 150 mg/kg/day
NEL [5, 15]: 75 mg/kg/day
NOAEL [5, 15]: ≥ 150 mg/kg/day
LEL [5, 16]: 75 mg/kg/day
LOAEL [5, 16]: 75 mg/kg/day
NEL [5, 16]: 30 mg/kg/day
NOAEL [5, 16]: 30 mg/kg/day
LEL [6, 17]: 3.75 mg/kg/day
LOAEL [6, 17]: 3.75 mg/kg/day
NEL [6, 18]: 0.38 mg/kg/day
NOAEL [6, 18]: 0.38 mg/kg/day
LOAEL [7, 11]: 13.3 mg/kg/day
NEL [7, 19]: 3.3 mg/kg/day
NOAEL [7, 19]: 3.3 mg/kg/day
LEL ([7]; systemic / pathology microscopic / liver / hypertrophy + systemic / organ weight / liver / absolute + systemic / organ weight / liver / …): 13.3 mg/kg/day
LEL [8]: 26.3 mg/kg/day
LOAEL [8]: 26.3 mg/kg/day
NEL [8]: 1.28 mg/kg/day
NOAEL [8]: 1.28 mg/kg/day
LEL [9, 20]: 40 mg/kg/day
LOAEL [9, 20]: 40 mg/kg/day
NEL [9, 20]: 4 mg/kg/day
NOAEL [9, 20]: 4 mg/kg/day
LOAEL [9, 21]: 40 mg/kg/day
NEL [9, 21]: 0.4 mg/kg/day
NOAEL [9, 21]: 4 mg/kg/day
LEL ([9]; group: parental, systemic / organ weight / liver / absolute + systemic / organ weight / liver / relative to body weight): 4 mg/kg/day
LEL [9, 22]: 40 mg/kg/day
LOAEL [9, 22]: 40 mg/kg/day
NEL [9, 22]: 4 mg/kg/day
NOAEL [9, 22]: 4 mg/kg/day
LEL ([10]; systemic / hematology / hematocrit (hct) / hematocrit (hct) + systemic / hematology / hemoglobin (hgb) / hemoglobin (hgb)): 3.03 mg/kg/day
NEL [10, 23]: 0.31 mg/kg/day
NOAEL [10, 23]: 3.03 mg/kg/day
LOAEL ([10]; systemic / pathology microscopic / thyroid gland / adenoma/carcinoma combined + systemic / organ weight / liver / absolute + systemic / …): 30.6 mg/kg/day
